# Test results as given in paper PMC9105976, “A Novel β-Hairpin Peptide Z-d14CFR Enhances Multidrug-Resistant Bacterial Clearance in a Murine Model of Mastitis” (International Journal of Molecular Sciences, 2022).
# Where two headings read alike, the source gives them in different places. Positions of bridges follow the written chain, without caps; N, C: chain ends. Residues, ends and D or L forms follow the SMILES beside them.
# Assays:
# E. coli ATCC25922 = assay: Time-killing assay; assay type: cell-based; details: 2 MIC, CFU counts at 0-24 h; for time to kill bacteria in the logarithmic phase: 1 × 10^6 CFU/mL
# Method: (§1) E. coli ATCC25922 and S. aureus ATCC29213 in the mid-logarithmic phase were diluted into 1 × 10^6 CFU/mL with 10 mM PBS, and incubated with 10 μL Z-d14CFR in a final concentration of 2 MIC. At 0, 4, 8, 12, 16, 20, and 24 h, the mixture was serial diluted and spread onto LB agar plates. After 16 h of cultivation, the CFU number of bacteria was counted to evaluate the ability of peptide to kill bacteria. The bacteria treated with 10 mM PBS as a negative control, and meanwhile incubated with 2 MIC gentamicin or polymyxin B as a positive control.
# S. aureus ATCC29213 = assay: Time-killing assay; assay type: cell-based; details: 2 MIC, CFU counts at 0-24 h; for time to kill bacteria in the logarithmic phase: 1 × 10^6 CFU/mL
# Method: as §1
# [1] = system: Klebsiella pneumoniae CAU202084; assay: MIC/MBC, microdilution broth method; assay type: cell-based; details: for MBC: kills 99.9% bacteria, NA = no activity at 1 mg/mL
# Method: (§2) The MIC of peptides against bacteria was carried out by the microdilution broth method. The bacterial culture (OD 600 = 0.6) was diluted in 10 mM PBS to 1 × 10^6 CFU/mL. The bacterial suspension (100 μL) was added to 96-well plates, and the same volume of peptides, ampicillin or gentamicin (concentrations ranging from 0.001 to 2 mg/mL) were then added to the same 96-well plates, respectively.
# [2] = system: Proteus vulgaris CVCC1971; assay: MIC/MBC, microdilution broth method; assay type: cell-based; details: for MBC: kills 99.9% bacteria, NA = no activity at 1 mg/mL
# Method: as §2
# [3] = system: Streptococcus suis CVCC3307; assay: MIC/MBC, microdilution broth method; assay type: cell-based; details: for MBC: kills 99.9% bacteria, NA = no activity at 1 mg/mL
# Method: as §2
# MRSA ATCC33591 = assay: MIC/MBC, microdilution broth method; assay type: cell-based, S. aureus; details: for MBC: MRSA ATCC33591, kills 99.9% bacteria, NA = no activity at 1 mg/mL
# Method: as §2
# [4] = Retention time of peptide in HPLC (hydrophobicity); assay type: physicochemical; details: used as measure of hydrophobicity (order Z-d14CR > Z-d14CF > Z-d13 > Z-d14CFR > Z-d14C); column and gradient not given
# [5] = system: Bacillus cereus CAU 202020; assay: MIC/MBC, microdilution broth method; assay type: cell-based; details: for MIC: Bacillus cereus, CAU202020, 18 h, read-out: MIC; for MBC: CAU202020, Bacillus cereus CAU 202020 (MDR isolate), kills 99.9% bacteria, NA = no activity at 1 mg/mL, read-out: MBC
# Method: as §2
# [6] = system: Escherichia coli ATCC25922; assay: MIC/MBC, microdilution broth method; assay type: cell-based; details: for MBC: Escherichia coli ATCC25922, minimum concentration which kills 99.9% bacteria, NA = no activity at 1 mg/mL, read-out: MBC; for MIC: Escherichia coli, ATCC25922, 18 h, read-out: MIC
# Method: as §2
# [7] = system: Escherichia coli CAU 201919; assay: MIC/MBC, microdilution broth method; assay type: cell-based; details: for MBC: CAU201919, Escherichia coli CAU 201919 (MDR isolate), kills 99.9% bacteria, NA = no activity at 1 mg/mL, read-out: MBC; for MIC: Escherichia coli, CAU201919, 18 h, read-out: MIC
# Method: as §2
# [8] = system: Escherichia coli CAU 201920; assay: MIC/MBC, microdilution broth method; assay type: cell-based; details: for MBC: CAU201920, Escherichia coli CAU 201920 (MDR isolate), kills 99.9% bacteria, NA = no activity at 1 mg/mL, read-out: MBC; for MIC: Escherichia coli, CAU201920, 18 h, read-out: MIC
# Method: as §2
# [9] = system: Escherichia coli CVCC1450; assay: MIC/MBC, microdilution broth method; assay type: cell-based; details: for MBC: Escherichia coli CVCC1450, minimum concentration which kills 99.9% bacteria, NA = no activity at 1 mg/mL, read-out: MBC; for MIC: Escherichia coli, CVCC1450, 18 h, read-out: MIC
# Method: as §2
# [10] = system: Salmonella typhimurium ATCC14028; assay: MIC/MBC, microdilution broth method; assay type: cell-based; details: Salmonella enterica; for MIC: 18 h, read-out: MIC; for MBC: Salmonella typhimurium ATCC14028, kills 99.9% bacteria, NA = no activity at 1 mg/mL, read-out: MBC
# Method: as §2
# [11] = system: Staphylococcus aureus ATCC29213; assay: MIC/MBC, microdilution broth method; assay type: cell-based; details: for MBC: Staphylococcus aureus ATCC29213, kills 99.9% bacteria, NA = no activity at 1 mg/mL, read-out: MBC; for MIC: Staphylococcus aureus, ATCC29213, 18 h, read-out: MIC
# Method: as §2
# [12] = system: Staphylococcus haemolyticus CAU202078; assay: MIC/MBC, microdilution broth method; assay type: cell-based; details: for MBC: Staphylococcus haemolyticus CAU202078 (MDR isolate), kills 99.9% bacteria, NA = no activity at 1 mg/mL, read-out: MBC; for MIC: Staphylococcus haemolyticus, CAU202078, 18 h, read-out: MIC
# Method: as §2
# E. coli CAU201919 = assay: Murine model of mastitis induced by MDR E. coli; assay type: in vivo, mice; details: Z-d14CFR 25 μg or gentamicin 10 μg via milk duct at 3 h and 15 h, 27 h post-infection
# Excerpt: In this study, the therapeutic effects of Z-d14CFR on MDR bacterial infection in vivo was verified by a murine mastitis model. E. coli CAU201919 was used to establish the mastitis model because it is highly pathogenic compared with other bacteria and is resistant to various antibiotics, such as ampicillin, amoxicillin and cefazolin. In brief, 45 Crl:CD1 female mice at 17–18 days of gestation were purchased from Beijing Vital River Laboratory Animal Technology Co., Ltd. (Beijing, China) and kept in the Laboratory Animal Center of China Agricultural University (Beijing, China). At 72 h post-partum, the mice were randomly divided into 5 groups (n = 9 per group) and the offspring were removed 3 h before of administration. The mice were anesthetized by Zoletil 50 (55 mg/kg body weight, WK001, Virbac, France) and held under the stereoscope in a supine position. Mice in the saline group and Z-d14CFR group were intraductal inoculated with 50 μL normal saline or 50 μL Z-d14CFR (25 μg each teat) alone to the milk duct. Mice in other groups were inoculated with 25 μL (1 × 10^5 CFU) E. coli CAU201919 suspension to the milk duct, and after 3 h of E. coli challenged, mice were treated with 25 μL saline, Z-d14CFR (25 μg) or gentamicin (10 μg), respectively, via milk duct injection. Then the mice were given the same treatment after 15 h of E. coli challenged. After 27 h of E. coli challenged, all mice were euthanized. The mammary gland tissues were collected to carry out bacterial count, histopathological examination and inflammatory factors examination.
# [13] = Klebsiella pneumoniae CAU202084 (MDR isolate), read-out: MBC
# [14] = Klebsiella pneumoniae, CAU202084, 18 h, read-out: MIC
# [15] = Proteus vulgaris CVCC1971, read-out: MBC
# [16] = Proteus vulgaris, CVCC1971, 18 h, read-out: MIC
# [17] = Streptococcus suis CVCC3307, read-out: MBC
# [18] = Streptococcus suis, CVCC3307, 18 h, read-out: MIC
# [19] = Staphylococcus aureus, 18 h, read-out: MIC
# [20] = Staphylococcus aureus, read-out: MBC
Molecule,time to kill bacteria in the logarithmic phase (E. coli ATCC25922) [h],time to kill bacteria in the plateau (E. coli ATCC25922) [h],time to kill bacteria in the logarithmic phase (S. aureus ATCC29213) [h],time to kill bacteria in the plateau (S. aureus ATCC29213) [h],MIC [5] [µg/mL],MBC [5] [µg/mL],MBC [6] [µg/mL],MIC [6] [µg/mL],MBC [7] [µg/mL],MIC [7] [µg/mL],MBC [8] [µg/mL],MIC [8] [µg/mL],MBC [9] [µg/mL],MIC [9] [µg/mL],"MBC [1, 13] [µg/mL]","MIC [1, 14] [µg/mL]","MBC [2, 15] [µg/mL]","MIC [2, 16] [µg/mL]",MIC [10] [µg/mL],MBC [10] [µg/mL],further results
polymyxin B,≤ 4,≤ 12,≤ 4,≤ 12,,,,,,,,,,,,,,,,,
"CC(C)[C@@H]1NC(=O)[C@@H]2CSSC[C@H](NC(=O)[C@H](Cc3ccc(O)cc3)NC(=O)[C@@H](NC(=O)CNC(=O)[C@@H](N)CCCNC(=N)N)CSSC[C@@H](C(=O)N[C@@H](CCCNC(=N)N)C(N)=O)NC1=O)C(=O)N[C@@H](CC(N)=O)C(=O)N[C@@H](CO)C(=O)N[C@@H](CCCCN)C(=O)N[C@@H](CO)C(=O)N[C@@H](Cc1ccccc1)C(=O)N2 [Z-d14CF] (H-RGCYCNSKSFCVCR-NH2; disulfide 3-13, 5-11; N-terminus assumed)",,,,,,,,,,,,,,,,,,,,,"MIC ([1]; Klebsiella pneumoniae CAU202084 (MDR isolate), 1 × 10^6 CFU/mL, 18 h at 37 °C, NA = no antimicrobial activity at 1 mg/mL): NA (NA) (No antimicrobial activity at 1 mg/mL); MBC ([1]; Klebsiella pneumoniae CAU202084 (MDR isolate)): NA (NA) (No antimicrobial activity at 1 mg/mL); MIC ([2]; Proteus vulgaris CVCC1971, 1 × 10^6 CFU/mL, 18 h at 37 °C, NA = no antimicrobial activity at 1 mg/mL): NA (NA) (No antimicrobial activity at 1 mg/mL); MBC ([2]; Proteus vulgaris CVCC1971): NA (NA) (No antimicrobial activity at 1 mg/mL); MIC ([3]; Streptococcus suis CVCC3307, 1 × 10^6 CFU/mL, 18 h at 37 °C, NA = no antimicrobial activity at 1 mg/mL): NA (NA) (No antimicrobial activity at 1 mg/mL); MBC ([3]; Streptococcus suis CVCC3307): NA (NA) (No antimicrobial activity at 1 mg/mL); MIC (MRSA ATCC33591; MRSA (methicillin-resistant S. aureus) ATCC33591, 1 × 10^6 CFU/mL, 18 h at 37 °C, NA = no antimicrobial activity at 1 mg/mL): NA (NA) (No antimicrobial activity at 1 mg/mL); MBC (MRSA ATCC33591): NA (NA) (No antimicrobial activity at 1 mg/mL); RT, retention time of peptide in HPLC [4]: 9.538 min"
"CC1(C)S[C@@H]2[C@H](NC(=O)[C@H](N)c3ccccc3)C(=O)N2[C@H]1C(=O)O [Ampicillin, reference compound]",,,,,> 1000,> 1000,16,4,> 1000,> 1000,> 1000,> 1000,32,8,> 1000,> 1000,> 1000,> 1000,4,8,"MBC [11]: 4 µg/mL; MIC [11]: 2 µg/mL; MBC [12]: > 1000 µg/mL; MIC [12]: > 1000 µg/mL; MBC [3, 17]: 2 µg/mL; MIC [3, 18]: 1 µg/mL; MIC (MRSA ATCC33591; [19]): > 1000 µg/mL; MBC (MRSA ATCC33591; [20]): > 1000 µg/mL"
"CNC(C)C1CCC(N)C(OC2C(N)CC(N)C(OC3OCC(C)(O)C(NC)C3O)C2O)O1 (stereo not drawn) [Gentamicin, reference compound]",≤ 8,≤ 12,≤ 8,≤ 12,4,32,4,4,40,40,80,80,4,2,4,1,4,1,2,2,"MBC [11]: 4 µg/mL; MIC [11]: 4 µg/mL; MBC [12]: 4 µg/mL; MIC [12]: 4 µg/mL; MBC [3, 17]: 8 µg/mL; MIC [3, 18]: 4 µg/mL; MIC (MRSA ATCC33591; [19]): 4 µg/mL; MBC (MRSA ATCC33591; [20]): 16 µg/mL; bacterial burden in the mammary gland (E. coli CAU201919; Crl:CD1 mice, 1 × 10^5 CFU E. coli CAU201919 intraductal, infected only about 3.71 × 10^9, p < 0.001): 3.13 × 10^8 CFU/g tissue; histopathologic damage of the mammary gland (acinar wall thickening, neutrophils infiltration) (E. coli CAU201919): obviously ameliorated; increase in IL-1β mRNA expression in the mammary gland (E. coli CAU201919; p < 0.001): attenuated; increase in TNF-α mRNA expression in the mammary gland (E. coli CAU201919; p < 0.001): attenuated"
